In patent US9248162B2, “Factor H for treatment of rheumatoid arthritis” (Baxter International Inc., priority 2013, dated 2016):
“And” between values parts separate entries of the source, which are not always exact repeats. Identical values can stand only once. “Also recorded” adds a separate entry of the source.

Tests used:
[1] = tested on: pre-sensitized kidney transplants; experiment: Early phase (POD3, POD5) kidney graft function, CFH with or without Adrenomedullin (Example 3); type: in vivo, C57BL/6 (B6) mice; conditions: result in words; POD5, vs. untreated controls (FIG. 6A)
Protocol: The effect of CFH with or without Adrenomedullin (AM) on kidney graft function, antibody response, and histology was determined following the early phase of transplantation (POD3 and POD5). […] To test whether AM provides additional benefits to renal graft function, an additional group of transplants were treated with a single dose infusion (200 μl, i.v.) of AM (˜100 ug/kg) mixed with CFH (˜1 mg/kg) immediately following the transplant surgery (POD0), in addition to the i.p. injection of CFH (day-1, 0, and every other day). CFH is a serum-binding protein for AM. It has been shown that AM influences the complement regulatory function of Factor H by enhancing the cleavage of C3b via Factor I. […] FH concentration will be 112.5 μg/ml). Transfer 220 μl aliquots to sterile tubes and freeze at −70 until ready for use. All mice were sacrificed on POD3 and 5, respectively (˜5/ea). Untreated transplants sacrificed at the same endpoints were used as controls. Graft tissues were harvested for histology and immune-histochemistry (IHC). The experimental groups were as follows: 1) C3H to B6 txs+pre-sensitization+control; 2) C3H to B6 txs+pre-sensitization+CFH (i.p.); and 3) C3H to B6 txs+pre-sensitization+CFH (i.p.)+AM/CFH infusion (at time of transplant).

[2] = tested on: collagen antibody-induced arthritis; experiment: Mouse CAIA: ankle histology scores (H & E); type: in vivo, Balb C mice; design: key to Score From H & E: Inflammation: 0: normal; 1: minimal infiltration of inflammatory cells in periarticular tissue; 2: mild infiltration; 3: moderate infiltration with moderate edema; 4: marked infiltration with marked edema; 5: severe infiltration with severe edema; key to Exostosis, Summary (significance) / Composite, Summary (significance) / Pannus, Summary (significance) / Cartilage, Summary (significance) / Inflammation, Summary (significance): ns: = not significant; *: = P < 0.05; **: = P < 0.01; ***: = P < 0.001; Composite Biohistopathology Score, group value / Composite Biohistopathology Score: scale not given here; conditions: for Cartilage, Difference in rank sum / Cartilage, Summary (significance) / Composite, Difference in rank sum / Composite, Summary (significance) / Exostosis, Difference in rank sum / Exostosis, Summary (significance) / Inflammation, Difference in rank sum / Inflammation, Summary (significance) / Pannus, Difference in rank sum / Pannus, Summary (significance): Vehicle vs agent, Dunn's Multiple Comparison Test; for Composite Biohistopathology Score, group value / Score From H & E: Bone Resorption, group value / Score From H & E: Cartilage Damage, group value / Score From H & E: Inflammation, group value / Score From H & E: Pannus, group value / Score From H & E: Periosteal/Exostotic Changes, group value / Composite Biohistopathology Score / Score From H & E: Inflammation: ankle; for Composite Biohistopathology Score, group value / Score From H & E: Bone Resorption, group value / Score From H & E: Cartilage Damage, group value / Score From H & E: Inflammation, group value / Score From H & E: Pannus, group value / Score From H & E: Periosteal/Exostotic Changes, group value: group mean ± spread, 10 animals; for Score From H & E: Bone Resorption, group value / Score From H & E: Cartilage Damage, group value / Score From H & E: Inflammation, group value / Score From H & E: Pannus, group value / Score From H & E: Periosteal/Exostotic Changes, group value / Score From H & E: Inflammation: score 0-5; for Composite Biohistopathology Score / Score From H & E: Inflammation: individual animal, endpoint day 22; for Composite Score: histopathology composite, hind limbs at endpoint; for Composite Score / Bone Resorption / Cartilage Damage / Exostosis / Inflammation / Pannus: group value; for Bone Resorption / Cartilage Damage / Exostosis / Inflammation / Pannus: histopathology score, graded 1-5, hind limbs at endpoint
Protocol: Balb C mice (n=10 per cohort) were used to determine the efficacy of Factor H (FH) during […]. The mice were treated with ArthritoMAb (anti-collagen) antibody cocktail (2 mg, i.v.) on day 1, followed 7 days later with an injection of LPS (50 μg, i.p.). On day 8, hind paw volumes were measured for each animal and distributed to various treatment groups.
Dosing with the different agents was started on day 8 as described in Table 3.
Hind paw volumes were measured on day 8, 11, 12, 13, 15, 19 and 22 (endpoint). The age at start date was 7 to 9 weeks. Body weights were measured bi-weekly to the endpoint (Table 4). At the endpoint, tissue samples were processed for histology and submitted to a pathologist for independent analysis. Sampling 1 was performed at the endpoint. The hind limbs were preserved in 10% formalin. Sampling 2 was performed at the endpoint for group 4 animals. Blood was collected by terminal cardiac puncture. The blood was processed for anti-coagulant. The kidneys were additionally preserved in formalin and followed with 70% EtOH. Samples were scored for inflammation, pannus (granulation tissue), cartilage damage, bone resorption and exostosis (Table 5).

[3] = tested on: pre-sensitized kidney transplants; experiment: Early phase kidney allograft histology, HE staining (Example 3); type: in vivo, C57BL/6 (B6) mice; conditions: result in words; POD5 (FIG. 6B)
Protocol: The effect of CFH with or without Adrenomedullin (AM) on kidney graft function, antibody response, and histology was determined following the early phase of transplantation (POD3 and POD5). The pre-sensitized kidney transplants were treated with CFH (8 mg, i.p.) on day −1, day 0 and then every other day. To test whether AM provides additional benefits to renal graft function, an additional group of transplants were treated with a single dose infusion (200 μl, i.v.) of AM (˜100 ug/kg) mixed with CFH (˜1 mg/kg) immediately following the transplant surgery (POD0), in addition to the i.p. injection of CFH (day-1, 0, and every other day).
All mice were sacrificed on POD3 and 5, respectively (˜5/ea). Untreated transplants sacrificed at the same endpoints were used as controls. Graft tissues were harvested for histology and immune-histochemistry (IHC). The experimental groups were as follows: 1) C3H to B6 txs+pre-sensitization+control; 2) C3H to B6 txs+pre-sensitization+CFH (i.p.); and 3) C3H to B6 txs+pre-sensitization+CFH (i.p.)+AM/CFH infusion (at time of transplant).

[4] = tested on: C3H kidneys grafted into pre-sensitized recipients; experiment: Pre-sensitized mouse kidney allograft model, CFH with or without FK506, creatinine (Example 1); type: in vivo, C57BL/6 (B6) mice
From the text: Male C3H (H-2k) and C57BL/6 (B6, H-2b) mice (25-30 g) were used to determine the efficacy of Complement Factor H (CFH) during transplant rejection. C3H mice served as skin graft and kidney donors for pre-sensitization and kidney transplantation. Male C57BL/c (B6) mice were used as recipients. The B6 recipients were pre-sensitized by transplantation of the donor skin grafts, and were subsequently transplanted with kidney allografts between 15 and 20 days after the skin transplantation. B6 mice were treated with vehicle (controls), CFH (day −1, day 0, then every other day to day 10; 8 mg/mouse, i.p.), FK506 (daily from day −1 to day 10; 1 mg/kg s.c.) or the combination of CFH+FK506 using the same dosage regime as the single treatments. Mice were monitored daily for signs of rejection. Renal function was monitored by measuring serum creatinine levels.

| Substance | Cartilage, Difference in rank sum [2] | Cartilage, Summary (significance) [2] | Composite, Difference in rank sum [2] | Composite, Summary (significance) [2] | Exostosis, Difference in rank sum [2] | Exostosis, Summary (significance) [2] | Inflammation, Difference in rank sum [2] | Inflammation, Summary (significance) [2] | Pannus, Difference in rank sum [2] | Pannus, Summary (significance) [2] | Composite Biohistopathology Score, group value [2] | Score From H & E: Bone Resorption, group value [2] | Score From H & E: Cartilage Damage, group value [2] | Score From H & E: Inflammation, group value [2] | Score From H & E: Pannus, group value [2] | Score From H & E: Periosteal/Exostotic Changes, group value [2] | Composite Score [2] | Bone Resorption [2] | Cartilage Damage [2] | Exostosis [2] | further results |
| --- | --- | --- | --- | --- | --- | --- | --- | --- | --- | --- | --- | --- | --- | --- | --- | --- | --- | --- | --- | --- | --- |
| Factor H | −0.75 | ns | 3.25 | ns | 11.5 | * (= P < 0.05) | 6.45 | ns | 1.9 | ns | 3.1 ± 1.2 | 0.3 ± 0.2 | 0.6 ± 0.2 | 1.0 ± 0.3 | 0.9 ± 0.3 | 0.3 ± 0.3 | 3.1 ± 1.2^ns | 0.3 ± 0.2^ns | 0.6 ± 0.2^ns | 0.3 ± 0.3 | renal function, Cr level [1]: trend of improved renal function; Composite Biohistopathology Score ([2]; listed as Group 4): 1 (3×) and 4 and 5 and 2 and 0 (2×) and 13 and 3; Score From H & E: Inflammation ([2]; listed as Group 4): 0 (4×) and 1 (3×) and 2 (2×) and 3; Inflammation [2]: 1.0 ± 0.3^ns; Pannus [2]: 0.9 ± 0.3^ns; histopathology ([2]; result in words (Table 8, FIG. 11), listed as FH): inhibits exostosis; also recorded: trend toward improved inflammation and bone resorption; kidney graft morphology (HE staining) [3]: improved morphology with less tubular necrosis on POD5; plasma Cr levels ([4]; POD7, CFH 8 mg/mouse i.p., controls 1.9±0.1): 1.4 ± 0.2 mg/dL; renal allograft function ([4]; result in words, creatinine on POD7 (FIG. 2)): improving renal allograft function |
| Etanercept | −1.5 | ns | 2.1 | ns | 5.8 | ns | 3.6 | ns | 0.3 | ns | 6.0 ± 2.1 | 1.0 ± 0.4 | 0.7 ± 0.3 | 1.5 ± 0.5 | 1.4 ± 0.5 | 1.4 ± 0.6 | 6.0 ± 2.1^ns | 1.0 ± 0.4^ns | 0.7 ± 0.3^ns | 1.4 ± 0.6^ns | Composite Biohistopathology Score ([2]; listed as Group 3): 11 (2×) and 0 (4×) and 16 and 15 and 1 and 4; Score From H & E: Inflammation ([2]; listed as Group 3): 3 (4×) and 0 (4×) and 1 and 2; Inflammation [2]: 1.5 ± 0.5^ns; Pannus [2]: 1.4 ± 0.5^ns |
